{
  "source": "ChEMBL document CHEMBL4825686",
  "about": "“HTS-based discovery and optimization of novel positive allosteric modulators of the α7 nicotinic acetylcholine receptor” (Eur J Med Chem, 2021)",
  "key": {"[1]": {"experiment": "Drug uptake in NMRI mouse brain at 0.3 mg/kg, ip measured after 1 hr by HPLC-MS/MS analysis", "assay_type": "ADME, organism-based", "details": "read-out: Ct"}, "[2]": {"target": "T1, Glutamate NMDA receptor (Rattus norvegicus) (UniProt P35439+Q00959+Q00960+Q00961+Q62645+Q8VHN2+Q9R1M7)", "experiment": "Displacement of [3H]TCP from NMDA receptor in Wistar rat cerebral cortex at 10 uM by displacement binding assay", "assay_type": "tissue-based"}, "[3]": {"target": "T2, Neuronal acetylcholine receptor; alpha3/beta4 (Homo sapiens) (UniProt P30926+P32297)", "experiment": "Positive allosteric modulator activity at alpha3beta4 nAChR (unknown origin) upto 10 uM by automated Q-patch clamp assay", "details": "dose microM <=10"}, "[4]": {"experiment": "Plasma concentration in NMRI mouse at 1 mg/kg, ip measured after 1 hr by HPLC-MS/MS analysis", "assay_type": "ADME, organism-based"}, "[5]": {"experiment": "Mutagenicity in Salmonella typhimurium TA100 in presence of rat liver S9 fraction by AMES test", "assay_type": "toxicity, subcellular", "details": "salmonella enterica subsp. enterica serovar typhimurium"}, "[6]": {"experiment": "Efflux ratio of apparent permeability from basolateral to apical side over apical to basolateral side in vinblastine-treated human Caco-2 cells expressing P-glycoprotein at 10 uM incubated for 120 mins by HPLC analysis", "assay_type": "ADME"}, "[7]": {"target": "T1, Glutamate NMDA receptor (Rattus norvegicus)", "experiment": "Displacement of [3H]CGP39653 from NMDA receptor in Wistar rat cerebral cortex at 10 uM by displacement binding assay", "assay_type": "tissue-based"}, "[8]": {"experiment": "Ratio of drug level in NMRI mouse brain to plasma at 3 mg/kg, ip measured after 1 hr by HPLC-MS/MS analysis", "assay_type": "ADME, organism-based", "details": "read-out: BPR"}, "[9]": {"experiment": "Mutagenicity in Salmonella typhimurium TA98 in absence of rat liver S9 fraction by AMES test", "assay_type": "toxicity", "details": "salmonella enterica subsp. enterica serovar typhimurium"}, "[10]": {"target": "Neuronal acetylcholine receptor subunit alpha-7 (Homo sapiens, UniProt P36544)", "sequence (P36544 whole entry)": "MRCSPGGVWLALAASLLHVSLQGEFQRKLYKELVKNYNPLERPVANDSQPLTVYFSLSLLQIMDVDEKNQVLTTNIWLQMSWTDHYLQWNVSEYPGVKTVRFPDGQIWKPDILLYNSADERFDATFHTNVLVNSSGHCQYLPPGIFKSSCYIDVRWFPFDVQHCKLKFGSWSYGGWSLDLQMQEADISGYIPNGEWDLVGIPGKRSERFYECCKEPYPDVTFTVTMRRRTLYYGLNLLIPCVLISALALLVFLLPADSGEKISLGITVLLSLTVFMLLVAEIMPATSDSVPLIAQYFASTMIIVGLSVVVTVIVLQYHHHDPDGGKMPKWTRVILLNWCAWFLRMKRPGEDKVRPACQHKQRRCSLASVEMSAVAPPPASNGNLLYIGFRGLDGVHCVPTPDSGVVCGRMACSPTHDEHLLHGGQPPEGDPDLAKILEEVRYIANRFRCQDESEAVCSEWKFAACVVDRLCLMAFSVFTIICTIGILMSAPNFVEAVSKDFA", "experiment": "Positive allosteric modulator activity at human alpha7 nAChR expressed in Flp-In-HEK293 cells co-expressing RIC-3 assessed as potentiation of PNU282987-induced calcium influx measured after 10 mins by FLIPR assay", "assay_type": "cell-based, Flp-In-293", "details": "read-out: EC50"}, "[11]": {"experiment": "Drug uptake in NMRI mouse brain at 3 mg/kg, ip measured after 1 hr by HPLC-MS/MS analysis", "assay_type": "ADME, organism-based", "details": "read-out: Ct"}, "[12]": {"experiment": "Mutagenicity in Escherichia coli WP2 uvrA in presence of rat liver S9 fraction by AMES test", "assay_type": "toxicity, subcellular"}, "[13]": {"experiment": "Plasma concentration in NMRI mouse at 3 mg/kg, ip measured after 1 hr by HPLC-MS/MS analysis", "assay_type": "ADME, organism-based"}, "[14]": {"experiment": "Plasma concentration in Wistar rat at 3 mg/kg, ip measured after 35 mins by HPLC-MS/MS analysis", "assay_type": "ADME, organism-based"}, "[15]": {"experiment": "Ratio of drug level in Wistar rat brain to plasma at 3 mg/kg, ip measured after 35 mins by HPLC-MS/MS analysis", "assay_type": "ADME, organism-based", "details": "read-out: BPR"}, "[16]": {"experiment": "Metabolic stability in human liver microsomes assessed as intrinsic clearance at 1 uM measured per mg protein upto 40 mins", "assay_type": "ADME, Microsome", "details": "read-out: CLH"}, "[17]": {"experiment": "Mutagenicity in Escherichia coli WP2 uvrA in absence of rat liver S9 fraction by AMES test", "assay_type": "toxicity"}, "[18]": {"experiment": "Plasma concentration in NMRI mouse at 0.3 mg/kg, ip measured after 1 hr by HPLC-MS/MS analysis", "assay_type": "ADME, organism-based"}, "[19]": {"experiment": "Plasma concentration in NMRI mouse at 0.1 mg/kg, ip measured after 1 hr by HPLC-MS/MS analysis", "assay_type": "ADME, organism-based"}, "[20]": {"experiment": "Ratio of drug level in NMRI mouse brain to plasma at 0.1 mg/kg, ip measured after 1 hr by HPLC-MS/MS analysis", "assay_type": "ADME, organism-based", "details": "read-out: BPR"}, "[21]": {"experiment": "Plasma concentration in NMRI mouse at 10 mg/kg, ip measured after 1 hr by HPLC-MS/MS analysis", "assay_type": "ADME, organism-based"}, "[22]": {"experiment": "Metabolic stability in Wistar rat liver microsomes assessed as intrinsic clearance at 1 uM measured per mg protein upto 40 mins", "assay_type": "ADME, Microsome", "details": "read-out: CLH"}, "[23]": {"experiment": "Ratio of drug level in NMRI mouse brain to plasma at 0.3 mg/kg, ip measured after 1 hr by HPLC-MS/MS analysis", "assay_type": "ADME, organism-based", "details": "read-out: BPR"}, "[24]": {"experiment": "Ratio of drug level in NMRI mouse brain to plasma at 1 mg/kg, ip measured after 1 hr by HPLC-MS/MS analysis", "assay_type": "ADME, organism-based", "details": "read-out: BPR"}, "[25]": {"experiment": "Mutagenicity in Salmonella typhimurium TA1535 in absence of rat liver S9 fraction by AMES test", "assay_type": "toxicity", "details": "salmonella enterica subsp. enterica serovar typhimurium"}, "[26]": {"target": "T3, 5-hydroxytryptamine receptor 3A (Homo sapiens) (UniProt P46098)", "T3 sequence (whole entry)": "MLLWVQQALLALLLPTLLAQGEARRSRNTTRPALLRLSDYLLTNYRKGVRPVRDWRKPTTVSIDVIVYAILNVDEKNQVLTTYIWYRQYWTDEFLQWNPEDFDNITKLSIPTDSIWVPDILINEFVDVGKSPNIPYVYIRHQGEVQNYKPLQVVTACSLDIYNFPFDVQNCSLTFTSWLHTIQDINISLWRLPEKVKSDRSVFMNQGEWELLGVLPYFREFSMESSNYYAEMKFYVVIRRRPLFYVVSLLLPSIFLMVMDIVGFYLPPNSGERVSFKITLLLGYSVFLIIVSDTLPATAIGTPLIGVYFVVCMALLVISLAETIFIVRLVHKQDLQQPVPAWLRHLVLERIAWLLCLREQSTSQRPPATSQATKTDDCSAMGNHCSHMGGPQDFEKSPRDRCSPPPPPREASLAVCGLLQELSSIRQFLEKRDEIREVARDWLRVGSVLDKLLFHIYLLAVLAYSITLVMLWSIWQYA", "experiment": "Displacement of [3H]GR65630 from human 5-HT3 receptor expressed in HEK293 cells at 10 uM by displacement binding assay", "assay_type": "cell-based"}, "[27]": {"target": "T2, Neuronal acetylcholine receptor; alpha3/beta4 (Homo sapiens)", "experiment": "Agonist activity at alpha3beta4 nAChR (unknown origin) upto 30 uM by automated Q-patch clamp assay", "details": "dose microM <=30"}},
  "note": "Active and inactive are the calls of the source. The calls are words filed in the database; no cut-off is given here.",
  "data": [
    {"smiles": "Cc1ccc(CN2CCN(C(=O)C(=O)Nc3ccc4c(ccn4C)c3)CC2)cc1", "values": [
      {"measurement": "concentration at 1 h", "setting": "[1]", "value": 5.5, "unit": "nM"},
      {"measurement": "inhibition", "setting": "[2]", "value": "< 15", "unit": "%"},
      {"measurement": "Activity", "setting": "[3]", "value": "inactive"},
      {"measurement": "concentration at 1 h", "setting": "[4]", "value": 21, "unit": "nM"},
      {"measurement": "Activity", "setting": "[5]", "value": "Non-Toxic"},
      {"measurement": "efflux ratio at 2 h, 10 µM", "setting": "[6]", "value": 0.7},
      {"measurement": "inhibition", "setting": "[7]", "value": "< 15", "unit": "%"},
      {"measurement": "Kp at 1 h", "setting": "[8]", "value": 1.68},
      {"measurement": "Activity", "setting": "[9]", "value": "Non-Toxic"},
      {"measurement": "EC50", "setting": "[10]", "value": 90, "unit": "nM"},
      {"measurement": "concentration at 1 h", "setting": "[11]", "value": 64, "unit": "nM"},
      {"measurement": "Activity", "setting": "[12]", "value": "Non-Toxic"},
      {"measurement": "concentration at 1 h", "setting": "[13]", "value": 37, "unit": "nM"},
      {"measurement": "concentration at 35 min", "setting": "[14]", "value": 54, "unit": "nM"},
      {"measurement": "Kp at 35 min", "setting": "[15]", "value": 3.8},
      {"measurement": "microsomal CLint at 1 µM", "setting": "[16]", "value": 15, "unit": "µL/min/mg"},
      {"measurement": "Activity", "setting": "[17]", "value": "Non-Toxic"},
      {"measurement": "concentration at 1 h", "setting": "[18]", "value": 4.3, "unit": "nM"},
      {"measurement": "concentration at 1 h", "setting": "[19]", "value": 2.1, "unit": "nM"},
      {"measurement": "Kp at 1 h", "setting": "[20]", "value": 1.32},
      {"measurement": "concentration at 1 h", "setting": "[21]", "value": 142, "unit": "nM"},
      {"measurement": "microsomal CLint at 1 µM", "setting": "[22]", "value": 158, "unit": "µL/min/mg"},
      {"measurement": "Kp at 1 h", "setting": "[23]", "value": 1.22},
      {"measurement": "Kp at 1 h", "setting": "[24]", "value": 1.88},
      {"measurement": "Activity", "setting": "[25]", "value": "Non-Toxic"},
      {"measurement": "inhibition", "setting": "[26]", "value": "< 15", "unit": "%"},
      {"measurement": "Activity", "setting": "[27]", "value": "inactive"}
    ]}
  ]
}
